Values of other authors, collected in patent US7324926B2, “Methods for predicting chemosensitivity or chemoresistance” (Whitehead Institute for Biomedical Research, priority 1999, dated 2008).

Tests used:
[1] = tested on: central nervous system (CNS) cell lines; settings: CNS cell lines of the NCI-60 panel; sensitive = log10(GI50) at least 0.8 SD below the mean
[2] = tested on: ovarian cancer cell lines; settings: ovarian cancer cell lines of the NCI-60 panel; resistant = log10(GI50) at least 0.8 SD above the mean

For `C=C1[C@@H](C)[C@H]2[C@H](Cc3ccccc3)NC(=O)[C@]23[C@H](OC(C)=O)/C=C/[C@@](C)(O)C(=O)[C@@H](C)C/C=C/[C@H]3[C@@H]1O` [cytochalasin D, Cytochalasin D], the “cytochalasin D sensitivity class of cell lines (from GI50)” value [1] is given as “sensitive” and the “cytochalasin D sensitivity class of cell lines (from GI50)” value [2] is given as “resistant”.
